Measurements from patent US8748108B2, “Biomarkers for identifying patient classes” (AbbVie Inc., priority 2006, dated 2014).
Entries after “also recorded” stand apart in the source; their conditions may differ.

Assays:
[1] = test system: circulating tumor cells (CTC); assay: phase 2 study, circulating tumor cell number (CellSearch); format: in vivo, human
Experimental: Blood specimens for analyzing circulating tumor cells (CTC) were collected at screening, on day 14 of cycles 1 and 2, and at final study visit (for US patients only). […] Samples enriched for CTC are removed from the Veridex cartridge after the imaging and enumeration, washed 1× in PBS, pelleted then resuspended in 100 μL PBS and dropped onto a positively charged slide (Biogenex, San Ramon, Calif.) and dried. The slides are then rinsed in H2O prior to imaging using the Carl Zeiss (Germany) or Bioview imaging systems (Tel Aviv, Israel), the CTC are identified and the locations recorded. […] The slides are then returned to the Zeiss or Bioview imaging systems and the previously identified CTC are assessed for DNA copy number.
To further evaluate this association, we assessed plasma Pro-GRP, and BCL2 copy number by FISH in CTC from patients on this study (n=10).

[2] = test system: M30; assay: phase 2 study, M30 ELISA assay in patient serum; format: in vivo, human
Experimental: Serum and plasma samples collected at the same intervals were stored at −70° C. or colder until analyzed for quantitative assessment of tumor markers. CYFRA 21-1 and Pro-GRP were measured using the automated [sequence] ELISA kits (Abbott Diagnostics, Abbott Park, Ill.) and NSE was measured in plasma using automated electrochemoluminescent assays on Elecsys 2010 (Roche Diagnostics, Germany). Serum samples were analyzed for M30 and M65 (Peviva AB, Sweden) using previously described assays validated to good clinical laboratory practice (see, Cummings J., et al., Br J Cancer 92:532-8, 2005; and Cummings J., et al., Br J Cancer 95:42-8, 2006).
This assay measures the release of caspase-cleaved cytokeratin 18 following apoptotic cell death.

[3] = test system: relapsed or refractory SCLC; assay: phase 2 study, efficacy (RECIST, PFS, OS); format: in vivo, human
Description: Eligible candidates for the phase 2 portion of this study (NCT00445198) were adults with histologically or cytologically confirmed SCLC, extensive stage, with progressive disease after at least one prior chemotherapy regimen (any number of prior therapies were allowed). […] Patients were excluded if they had underlying or predisposing condition of bleeding (history of non-chemotherapy induced thrombocytopenia with bleeding within 1 year, active peptic ulcer or hemorrhagic esophagitis/gastritis, active immune thrombocytopenic purpura, etc.). This study was conducted according to the Declaration of Helsinki and with approval from Institutional Review Boards of all participating study sites. All participants provided written informed consent before participating. The phase 2 component of this clinical trial was an open-label, single arm study of patients with recurrent and progressive SCLC after at least one prior therapy. Based on the dose and schedule determined in phase 1 (Example 3), patients were treated with navitoclax 150 mg daily for 1 week, and 325 mg daily thereafter. Cycle duration was defined as 21 days. Subjects could remain on therapy indefinitely, until disease progression or intolerable toxicity. […] New guidelines to evaluate the response to treatment in solid tumors. European Organization for Research and Treatment of Cancer, National Cancer Institute of the United States, National Cancer Institute of Canada. […] Additional efficacy variables included PFS and OS. All subjects enrolled were included in the analyses. Descriptive statistics were used to summarize demographic variables. Progression free survival and overall survival were computed using Kaplan-Meier methodology and 95% confidence intervals were provided. Progression free survival (PFS) was defined as the number of days from the date the subject started the study drug to the date the subject experienced an event of disease progression, or if progression was not experienced, then the date of death if the death occurred within 42 days (length of time between tumor assessments). Overall survival (OS) was defined as the number of days from the date the subject started the study drug to the date of the subject's death. […] Correlations between median BCL2 copy number and pro-GRP were performed by the Pearson correlation; M30 and CTC change from baseline comparisons among Pro-GRP groups were performed by one-way ANOVA using the JMP 8.0 statistical software. Optimized thresholds for the tumor markers were obtained using BATTing (Bootstrapping and Aggregating Thresholds from Trees) method (See, […]., Bagging Predictors. Machine Learning 26:123-140, 1996, fully incorporated herein by reference). Briefly, BATTing uses a tree-based model for threshold estimation. However, a single tree may be unstable and not robust enough against small perturbations in the distribution of the data. In addition, single tree-based models are known be prone to overfitting (that is, it is over-specified for training data) and have poor prediction power. Those issues are addressed in BATTing by aggregating the thresholds from multiple trees to get a more robust estimate. Each tree is built using a bootstrap random sample drawn from the original population and provides its own cutoff. The final estimate of the threshold is calculated as the median from the distribution of cutoffs generated from the multiple trees. This procedure was implemented using the R statistical software (available online from the R project). Several exploratory correlative biomarkers were included in this study, including both CTC enumeration and plasma protein markers associated with small cell lung cancer. The biomarker analysis included all phase II patients and, to increase the sample size, patients with SCLC and those dosed with >325 mg navitoclax on the phase I portion of this study were also included in the analysis. […]

[4] = test system: pro-GRP; assay: phase I study, plasma pro-GRP (ARCHITECT ELISA); format: in vivo, human; details: with increasing dose
Experimental: (§1) Blood samples for circulating tumor cells (CTCs) were collected at screening, C1D14, C2D14, and at the end of study treatment. Samples for the plasma marker Pro-GRP were collected at screening, C1D14, C2D14, and at the end of study. Samples for serum marker M30 were collected at screening, pre-dose, 6 and 24 hours post-dose on C1D-3 (for 14/21 day dosing) or lead-in day 2 for 21/21 day dosing). Samples were also collected on C1D14; pre-dose and 6 hours post-dose on C2D1; C2D14; end of cycle 4; and every 3rd cycle thereafter and at the final visit for all subjects.
(§2) The CTC were analyzed via the CellSearch system (Veridex, Raritan, N.J.). […] Pro-GRP was measured using ARCHITECT ELISA kits (Abbott Diagnostics, Abbott Park, Ill.). Serum samples were analyzed for M30 and M65 (Peviva) using previously described assays validated to good clinical laboratory practice (Cummings J, Ward T H, LaCasse E, et al: Validation of pharmacodynamic assays to evaluate the clinical efficacy of an antisense compound (AEG 35156) targeted to the X-linked inhibitor of apoptosis protein XIAP. Br J Cancer 92:532-8, 2005; and Cummings J, Ranson M, Lacasse E, et al: Method validation and preliminary qualification of pharmacodynamic biomarkers employed to evaluate the clinical efficacy of an antisense compound (AEG35156) targeted to the X-linked inhibitor of apoptosis protein XIAP. […]

[5] = test system: M30; assay: phase I study, serum M30 (caspase-cleaved CK18); format: in vivo, human
Experimental: as §1, §2

[6] = phase I dose-escalation study, safety; format: in vivo, human
Description: (§3) This example illustrates a phase I dose-escalation study to evaluate the safety, pharmacokinetics, and preliminary efficacy of navitoclax in subjects with relapsed or refractory SCLC and other solid tumors. This phase I study of navitoclax, a novel inhibitor of Bcl-2 family proteins, was designed to evaluate safety, pharmacokinetics, and preliminary efficacy in subjects with small cell lung cancer (SCLC) or other solid tumors.
(§4) Subjects enrolled to intermittent dosing cohorts received navitoclax on Days 1-14 followed by 7 days off. Subjects on continuous dosing cohorts received a one week lead-in dose of 150 mg followed by continuous daily administration of navitoclax. Blood samples were collected for pharmacokinetic analyses, biomarker analyses, and platelet monitoring.
Subjects were evaluated with history, physical exam, vital signs, complete blood count, chemistries, urinalysis and ECOG PS weekly through C2 and on D1 of each subsequent cycle. ECG and 2D-ECHO were obtained on C1D-3, C1D14, C3D1, C3D14, and end of study. Platelet counts were obtained on D-3 through 14 of C1, and weekly through each subsequent cycle. Lymphocyte enumeration was performed at screening, C1D14, at the end of C4, and at the end of every 3rd cycle thereafter. Radiographic tumor assessments were performed at baseline, after the 2nd and 4th cycles and after every 3 cycles thereafter. […]

[7] = phase I study, pharmacokinetics; format: in vivo; details: human, plasma; phase 1, patients, oral
[8] = test system: relapsed or refractory SCLC and other solid tumors; assay: phase I dose-escalation study, tumor response (RECIST); format: in vivo, human
Description: as §3, §4
Subjects included histologically documented SCLC or other non-hematologic malignancies, age ≧18, Eastern Cooperative Oncology Group performance status (ECOG PS) of ≦2, measurable disease by Response Evaluation Criteria in Solid Tumors (RECIST 1.0), and had received at least one prior chemotherapy treatment with documented progression. Subjects with brain metastases were included if they had surgery and/or radiation therapy followed by 21 days of stable neurologic function and stable disease by imaging prior to the first dose of study drug. Additional inclusion criteria included adequate bone marrow, renal and hepatic function per local laboratory reference range, non-pregnant status, and a life expectancy of ≧90 days.
Subjects were evaluated with history, physical exam, vital signs, complete blood count, chemistries, urinalysis and ECOG PS weekly through C2 and on D1 of each subsequent cycle. ECG and 2D-ECHO were obtained on C1D-3, C1D14, C3D1, C3D14, and end of study. Platelet counts were obtained on D-3 through 14 of C1, and weekly through each subsequent cycle. Lymphocyte enumeration was performed at screening, C1D14, at the end of C4, and at the end of every 3rd cycle thereafter. Radiographic tumor assessments were performed at baseline, after the 2nd and 4th cycles and after every 3 cycles thereafter.

[9] = phase 2 study, safety / study discontinuation; format: in vivo, human; details: phase 2, 39 patients
Experimental: Safety assessments included history and physical examinations, vital signs, ECOG performance status, AEs, blood chemistry and complete blood counts with differential. Safety assessments were performed at screening, weekly during cycle 1, and at the start of subsequent cycles. Adverse event severity was graded according to the National Cancer Institute Common Terminology Criteria for Adverse Events (NCI CTCAE), version 3.0 (Common Terminology Criteria for Adverse Events. Version 3.0. Available at NCI website for the cancer therapy evaluation program (CTEP). Relationships of adverse events to navitoclax (definitely, probably, possibly, unlikely, or unrelated) were assessed by the Principal Investigator at each site.
A total of 39 patients participated in the phase 2 study. The majority of patients were of performance status 1. The median number of prior therapeutic regimens was 2 (range 1-6). All patients were started at the planned dose and schedule, including dose escalation to 325 mg in week 2. The primary reasons for study discontinuation included disease progression (N=26, 67%) and AEs (N=11, 28%). The median number of treatment cycles was 2 (range, 1-11) and the median treatment duration was 1.3 months (range, 0.2-7.3).

[10] = test system: recurrent SCLC; details: recurrent SCLC patients; cited from earlier work
[11] = baseline CYFRA 21.1 above 2.3 ng/ml
[12] = baseline CYFRA 21.1 below 2.3 ng/ml
[13] = 47 enrolled, 38 evaluable for response

## CC1(C)CCC(c2ccc(Cl)cc2)=C(CN2CCN(c3ccc(C(=O)NS(=O)(=O)c4ccc(NC(CCN5CCOCC5)CSc5ccccc5)c(S(=O)(=O)C(F)(F)F)c4)cc3)CC2)C1 (stereo in doubt) [navitoclax, N-(4-(4-(2-(4-chlorophenyl)-5,5-dimethyl-1-cyclohex-1-en-1-yl)methyl)pip-erazin-1-yl)benzoyl)-4-(((1R)-3-(morpholin-4-yl)-1-((phenylsulfanyl)methyl)propyl)amino)-3-((trifluoromethyl)sulfonyl)benzenesulfonamide]
[1]; better prognosis patients, high pro-GRP group, baseline to day 14
  median CTC number: 91 % of baseline
[1]; better prognosis patients, low pro-GRP group, baseline to day 14
  median CTC number: 349 % of baseline
[1]; total population, high pro-GRP group n=12
  median CTC number: 186 % of baseline
[1]; total population, low pro-GRP group n=8
  median CTC number: 518 % of baseline
[2]; better prognosis patients, high Pro-GRP group (above 600 pg/mL)
  M30 concentrations: 205%
[2]; better prognosis patients, low Pro-GRP group (below 600 pg/mL)
  M30 concentrations: 116%
[2]; total population, high Pro-GRP group n=19
  M30 concentrations: 212%
[2]; total population, low Pro-GRP n=13
  M30 concentrations: 109%
[3]; baseline CTC above 12/7.5 ml
  Median OS Above threshold: 67 (17) D
  Median PFS Above threshold: 46 (15) D
[3]; baseline CTC below 12/7.5 ml
  Median PFS Below threshold: 63 (14) D
[3]; [11]
  Median OS Above threshold: 67 (19) D
  Median PFS Above threshold: 44 (19) D
[3]; [12]
  Median OS Below threshold: 242 (20) D
  Median PFS Below threshold: 53 (20) D
[3]; baseline NSE above 15 ng/ml
  Median OS Above threshold: 72 (24) D
  Median PFS Above threshold: 44 (24) D
[3]; baseline NSE below 15 ng/ml
  Median OS Below threshold: 242 (15) D
  Median PFS Below threshold: 55 (15) D
[3]; patients above thresholds for both NSE and CYFRA (poor prognosis), n=15
  median OS: 61 days
[3]; patients above thresholds for both NSE and CYFRA (poor prognosis), n=16
  median PFS: 41 days
[3]; patients not above both NSE and CYFRA thresholds, n=18
  median OS: 242 days
[3]; patients not above both NSE and CYFRA thresholds, n=23
  median PFS: 55 days
[3]; phase 2, 39 patients
  Median progression-free survival (PFS): 1.5 months
  best response of disease progression (PD): 41%
  confirmed partial response (PR): 2.6%
  inevaluable for response: 33.3%
  median overall survival (OS): 3.2 months
  stable disease (SD) as best response: 23.1%
[3]; phase 2, N = 39
  Best response PD, N (%): 16 (41.0) N (%)
  Best response PR, N (%): 1 (2.6) N (%)
  Best response SD, N (%): 9 (23.1) N (%)
  Median OS, mo (95% CI): 3.2 (2.3, 8.1) mo
  ORR, % (95% CI): 2.6 (0.1, 13.5) %
[3]; phase 2, N = 39, 150 mg daily 1 week then 325 mg daily
  Median PFS, mo (95% CI): 1.5 (1.4, 1.7) mo
[3]; phase 2, N = 39, baseline tumor data only
  Best response inevaluable, N (%): 13 (33.3) N (%)
[4]
  Pro-GRP levels overall: declined or stabilized with increasing navitoclax dose
[5]; in most instances
  time of rise in M30 following the first dose: ≤ 6 h
[5]; serum, cycle 1, post first exposure
  circulating M30: dose-dependent transient increase in circulating M30
[6]; from exploration of doses and schedules in phase I
  recommended phase 2 dose: 325 mg daily
[6]; phase I, intermittent and continuous dosing cohorts
  toxicities / tolerability: dose and schedule-dependent thrombocytopenia, diarrhea, nausea, and fatigue; also recorded: safe, well-tolerated, with dose-dependent thrombocytopenia as the major side effect; also recorded: rapid and dose-dependent thrombocytopenia
[7]
  half-life: ~15 h
[8]; [13]
  subjects with partial response: One
  subjects with stable disease: 7
[8]; one subject, remains on study
  duration of partial response: over 26 months
[9]
  study discontinuation due to AEs: 28%

## CC[C@@]1(O)C(=O)OCc2c1cc1n(c2=O)Cc2cc3c(CN(C)C)c(O)ccc3nc2-1 [topotecan]
[10]
  response rate: 2-6%
